Test results: publication PMC3726336, “Product inhibition of cellulases studied with ^14C-labeled cellulose substrates” (Biotechnology for Biofuels, 2013)
Like-named read-outs stand apart in the source and are kept apart here.

Assays:
[1] = target: T1, TrCel7A (Trichoderma reesei, UniProt P62694); assay: Inhibition of synergistic hydrolysis of 14C-BC by TrCel7A (supplemented with EG TrCel5A); format: biochemical; details: IC50 for cellobiose, 14C-BC substrate, average over time points
T1 construct: TrCel7A was purified from the culture filtrate of Tr QM 9414 as described previously; made in house; host or cells: Trichoderma reesei QM 9414 culture filtrate (native producer)
Description: To study the cellobiose inhibition of GH7 CBHs, the synergistic hydrolysis of ^14C-BC in the presence of added cellobiose was followed (Figure 3, Additional file 1: Figures S1 and S2). Because the cellobiose inhibition of the EG TrCel5A is much weaker than that of GH7 CBHs, the inhibition of synergistic hydrolysis apparently reflects the inhibition of CBH. The strength of cellobiose inhibition was analyzed using plots of (DCB/DCB=0) versus [cellobiose], where DCB and DCB=0 represent the degree of conversion of ^14C-BC in the presence and absence of cellobiose, respectively (Figure 4, Additional file 1: Figure S3). […]
(§1) where [CB] is the concentration of cellobiose; [^14CBC] is the concentration of ^14C-BC used in the experiment; and C1, C2 and H are empirical constants. Equation 5 differs from Equation 1 by the presence of constant H. H was included to improve the fit and is a constant that accounts for the background radioactivity (the degree of conversion that is independent of CBH). The degree of conversion resulting from the activity of the EG was measured in a separate experiment (Additional file 1: Figure S4) and was subtracted from the degree of conversion resulting from the synergistic hydrolysis. […] Provided with the values of C1, C2 and H, the value of IC50 was calculated as follows: […]

[2] = target: AtCel7A (Acremonium thermophilum, UniProt A7WNT9); assay: Inhibition of synergistic hydrolysis of 14C-BC by AtCel7A (supplemented with EG TrCel5A); format: biochemical; details: 14C-BC substrate, read-out: IC50 for cellobiose
Description: To study the cellobiose inhibition of GH7 CBHs, the synergistic hydrolysis of ^14C-BC in the presence of added cellobiose was followed (Figure 3, Additional file 1: Figures S1 and S2). Because the cellobiose inhibition of the EG TrCel5A is much weaker than that of GH7 CBHs, the inhibition of synergistic hydrolysis apparently reflects the inhibition of CBH. The strength of cellobiose inhibition was analyzed using plots of (DCB/DCB=0) versus [cellobiose], where DCB and DCB=0 represent the degree of conversion of ^14C-BC in the presence and absence of cellobiose, respectively (Figure 4, Additional file 1: Figure S3). In the case of experiments without added cellobiose, the reactions were provided with N188BG to prevent the inhibition of the CBH by the cellobiose released during hydrolysis. Experiments with no added cellobiose and without BG were also conducted. […] Therefore, the concentration of the cellobiose released during hydrolysis was added to the concentration of externally supplied cellobiose in generating the plots in Figure 4 and Additional file 1: Figure S3. For the calculation of IC50 values, the data were first fitted to hyperbolae:
as §1, with “hydrolysis. Thus, in the case of complete inhibition, H should have a value of zero.” for “hydrolysis.”
Using the time course data measured in the presence and absence of cellobiose, the IC50 values were first found separately for each time point (Figure 4A). […]

AtCel7A, sequence (A7WNT9 entry or part of it): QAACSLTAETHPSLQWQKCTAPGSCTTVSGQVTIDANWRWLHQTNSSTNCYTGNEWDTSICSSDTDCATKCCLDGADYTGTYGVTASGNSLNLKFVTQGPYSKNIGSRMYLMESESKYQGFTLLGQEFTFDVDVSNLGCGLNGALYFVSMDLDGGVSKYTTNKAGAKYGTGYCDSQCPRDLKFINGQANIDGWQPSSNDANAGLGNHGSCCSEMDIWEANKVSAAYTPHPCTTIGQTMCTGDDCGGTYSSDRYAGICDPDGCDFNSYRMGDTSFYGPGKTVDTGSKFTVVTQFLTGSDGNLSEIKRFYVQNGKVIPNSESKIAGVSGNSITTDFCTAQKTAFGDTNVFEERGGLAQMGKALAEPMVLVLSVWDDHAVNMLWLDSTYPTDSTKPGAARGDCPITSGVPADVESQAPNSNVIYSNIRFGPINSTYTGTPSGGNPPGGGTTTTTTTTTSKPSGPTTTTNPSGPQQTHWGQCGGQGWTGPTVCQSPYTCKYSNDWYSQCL
T1 sequence (P62694 18-513): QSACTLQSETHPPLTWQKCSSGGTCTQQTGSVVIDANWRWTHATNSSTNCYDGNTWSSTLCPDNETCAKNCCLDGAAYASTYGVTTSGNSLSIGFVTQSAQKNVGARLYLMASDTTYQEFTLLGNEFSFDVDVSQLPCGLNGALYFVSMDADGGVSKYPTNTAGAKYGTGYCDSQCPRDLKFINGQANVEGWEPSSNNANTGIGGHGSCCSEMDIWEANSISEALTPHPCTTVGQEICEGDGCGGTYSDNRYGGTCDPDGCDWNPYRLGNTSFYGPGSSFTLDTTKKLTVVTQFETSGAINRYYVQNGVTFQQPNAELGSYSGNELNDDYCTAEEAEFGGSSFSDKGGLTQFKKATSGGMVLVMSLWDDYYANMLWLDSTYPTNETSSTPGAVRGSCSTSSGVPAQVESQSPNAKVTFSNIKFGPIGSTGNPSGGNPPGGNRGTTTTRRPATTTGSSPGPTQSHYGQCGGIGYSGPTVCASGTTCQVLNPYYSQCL

O=C[C@H](O)[C@@H](O)[C@H](O[C@@H]1O[C@H](CO)[C@@H](O)[C@H](O)[C@H]1O)[C@H](O)CO [cellobiose, Cellobiose]
IC50 ([1]; 35°C, IC50 increased with hydrolysis time): 680 ± 240 µM
IC50 ([1]; 50°C): 2610 ± 100 µM
IC50 ([2]; 25°C, IC50 decreased with hydrolysis time): 190 ± 100 µM
IC50 ([2]; 35°C): 440 ± 100 µM
IC50 ([2]; 50°C, IC50 increased with hydrolysis time): 2120 ± 1400 µM
